Laboratory results from US20180360040A1, “PESTICIDAL COMPOUNDS AND THEIR USES” (priority 2015, published 2018).

How the values were obtained:
Format in all cases: in vivo
Diabrotica balteata = assay: Example B1: Diabrotica balteata (corn root worm), sprayed maize sprouts; conditions: 96 h, read-out: effect in at least one of the two categories (mortality or growth inhibition)
Procedure: Example B1: Diabrotica balteata (Corn Root Worm)
Maize sprouts placed onto an agar layer in 24-well microtiter plates were treated with aqueous test solutions prepared from 10,000 ppm DMSO stock solutions by spraying. After drying, the plates were infested with L2 larvae (6 to 10 per well). The samples were assessed for mortality and growth inhibition in comparison to untreated samples 4 days after infestation.

Tetranychus urticae = assay: Example B7: Tetranychus urticae (two-spotted spider mite), feeding/contact activity; conditions: 192 h, application rate 200 ppm, mixed population (mobile stages), 8 days after infestation
Procedure: Example B7: Tetranychus urticae (Two-Spotted Spider Mite): Feeding/Contact Activity
Bean leaf discs on agar in 24-well microtiter plates were sprayed with aqueous test solutions prepared from 10,000 ppm DMSO stock solutions. After drying the leaf discs were infested with a mite population of mixed ages. The samples were assessed for mortality on mixed population (mobile stages) 8 days after infestation.

Myzus persicae = assay: Example B4: Myzus persicae (green peach aphid), intrinsic activity; conditions: 120 h, test rate 12 ppm, 5 days after infestation
Excerpt: Example B4: Myzus persicae (Green Peach Aphid): Intrinsic Activity
Test compounds prepared from 10,000 ppm DMSO stock solutions were applied by pipette into 24-well microtiter plates and mixed with sucrose solution. The plates were closed with a stretched Parafilm. A plastic stencil with 24 holes was placed onto the plate and infested pea seedlings were placed directly on the Parafilm. The infested plate was closed with a gel blotting paper and another plastic stencil and then turned upside down. The samples were assessed for mortality 5 days after infestation.

Plutella xylostella = assay: Example B4 (second): Plutella xylostella (diamond back moth), artificial diet; conditions: 120 h, application rate 200 ppm, L2 larvae, 5 days after infestation, read-out: effect in at least one of the two categories (mortality or growth inhibition)
Procedure: Example B4: Plutella xylostella (Diamond Back Moth)
24-well microtiter plates with artificial diet were treated with aqueous test solutions prepared from 10,000 ppm DMSO stock solutions by pipetting. After drying, the plates were infested with L2 larvae (10 to 15 per well). The samples were assessed for mortality and growth inhibition in comparison to untreated samples 5 days after infestation.

Spodoptera littoralis [1] = assay: Example B5: Spodoptera littoralis (Egyptian cotton leaf worm), sprayed cotton leaf discs; conditions: foliar, 72 h, application rate 200 ppm, L1 larvae, 3 days after infestation, read-out: control (mortality, anti-feeding effect, growth inhibition)
Procedure: Example B5: Spodoptera littoralis (Egyptian Cotton Leaf Worm)
Cotton leaf discs were placed onto agar in 24-well microtiter plates and sprayed with aqueous test solutions prepared from 10,000 ppm DMSO stock solutions. After drying the leaf discs were infested with five L1 larvae. The samples were assessed for mortality, anti-feeding effect, and growth inhibition in comparison to untreated samples 3 days after infestation. Control of Spodoptera littoralis by a test sample is given when at least one of the categories mortality, anti-feedant effect, and growth inhibition is higher than the untreated sample.

Aedes aegypti = assay: Example B11: insecticide impregnated polymer surfaces (LDPE sheets), Aedes aegypti; conditions: 2% active ingredient in LDPE sheets, after 48 h and/or 24 h
Excerpt: (§1) Example B11: Evaluation of Insecticide Impregnated Polymer Surfaces
(§2) Preparation of polymeric sheets: Compound P1.17 was impregnated into LDPE (low density polyethylene) by mixing the respective polymer with the compound at high temperatures and the resultant polymeric material was then mould into thin discs or plaques.
(§3) Twenty four hours prior to the relevant assessment intervals, three to five day old non-blood fed adult mosquitoes were taken from the culture and lightly anaesthetised with carbon dioxide. Ten females were selected and placed in a 250 ml plastic cup, retained with a net lid, provided with a 10% sucrose solution soaked in a cotton wool bung and held under culturing environmental conditions.
(§4) After twenty four hours, impregnated polymer sheets (measuring about 150 mm in diameter and about 0.1 mm in thickness) were removed from storage and wrapped around the glazed side of an 11 cm ceramic tile and held in place with an elastic band. The age of the polymer sheets used were either 1-2 weeks or 10 weeks old. A cup of the pre-selected mosquitoes were again lightly anaesthetised with carbon dioxide and transferred from the holding cup to the base of a 9 cm plastic Petri dish. The relevant impregnated polymer sheet was placed over the Petri dish and held in place with an elastic band. Once the mosquitoes had recovered from the anaesthetic, ca. 1 minute, the impregnated polymer sheet was placed on a holding rack, such that treated side was at an angle of 60° to the horizontal.
(§5) After one hour an assessment of mosquito knockdown was made. A mosquito was said to be knocked down if it was unable to right itself once it had fallen over. The mosquitoes were lightly anaesthetised again, and removed from the Petri dish exposure chamber and returned to the holding cups. The mosquitoes were supplied with a 10% sucrose solution soaked in a cotton wool bung and held under culturing environmental conditions. An assessment of mortality was made 24 hours and 48 hours after exposure. A mosquito was said to be dead if it is unable to right itself once it had fallen over.

Anopheles stephensi = assay: Example B11: insecticide impregnated polymer surfaces (LDPE sheets), Anopheles stephensi; conditions: 2% active ingredient in LDPE sheets, after 48 h and/or 24 h
Excerpt: as §1, §2, §3, §4, §5

Euschistus heros = assay: Example B2: Euschistus heros (neotropical brown stink bug), sprayed soybean leaves; conditions: 120 h, application rate 200 ppm, N2 nymphs, 5 days after infestation, read-out: effect in at least one of the two categories (mortality or growth inhibition)
Procedure: Example B2: Euschistus heros (Neotropical Brown Stink Bug)
Soybean leaves on agar in 24-well microtiter plates were sprayed with aqueous test solutions prepared from 10,000 ppm DMSO stock solutions. After drying the leaves were infested with N2 nymphs. The samples were assessed for mortality and growth inhibition in comparison to untreated samples 5 days after infestation.

Spodoptera littoralis [2] = assay: Example B6: Spodoptera littoralis (Egyptian cotton leaf worm), root uptake by lettuce from agar; conditions: 144 h, test rate 12.5 ppm, 6 days after infestation, read-out: effect in at least one of the three categories (mortality, anti-feeding, or growth inhibition)
Excerpt: Example B6: Spodoptera littoralis (Egyptian Cotton Leaf Worm)
Test compounds were applied by pipette from 10,000 ppm DMSO stock solutions into 24-well plates and mixed with agar. Lettuce seeds were placed onto the agar and the multi well plate was closed by another plate which contained also agar. After 7 days the compound was absorbed by the roots and the lettuce grew into the lid plate. The lettuce leaves were then cut off into the lid plate. Spodoptera eggs were pipetted through a plastic stencil onto a humid gel blotting paper and the lid plate was closed with it. The samples were assessed for mortality, anti-feedant effect and growth inhibition in comparison to untreated samples 6 days after infestation.

Row | Compound | percent control (mortality or growth inhibition) at 200 ppm (Diabrotica balteata) | mortality at 200 ppm (Tetranychus urticae) | mortality at 12 ppm (Myzus persicae) | percent effect (mortality or growth inhibition) at 200 ppm (Plutella xylostella) | mortality at 200 ppm (Spodoptera littoralis [1]) | further results
1 | CN1OC(c2ccc(-c3ccc(F)cc3)cc2)(C2CC2)N=C1NC(C)(C)C (stereo not shown) [Compound P1.137, N-tert-butyl-5-cyclopropyl-5-[4-(4-fluorophenyl)phenyl]-2-methyl-1,2,4-oxadiazol-3-amine] | ≥ 80% | – | – | – | – | –
2 | CCC1(c2ccccc2)N=C(NC(C)(C)C)N(C)O1 (stereo not shown) [Compound P1.94, N-tert-Butyl-5-ethyl-2-methyl-5-phenyl-1,2,4-oxadiazol-3-amine] | ≥ 80% | ≥ 80% | – | – | – | –
3 | CN1OC(c2ccccc2)(C2CC2)N=C1NC(C)(C)C (stereo not shown) [Compound P1.17, N-tert-Butyl-5-cyclopropyl-2-methyl-5-phenyl-1,2,4-oxadiazol-3-amine] | ≥ 80% | – | ≥ 80% | ≥ 80% | ≥ 80% | control of Aedes Aegypti (Aedes aegypti; sheet after 1 week): at least 80%; control of Aedes Aegypti (Aedes aegypti; sheet after 2 weeks): at least 80%; control of Aedes Aegypti (Aedes aegypti; sheet after 10 weeks): at least 80%; control of Anopheles stephensi (Anopheles stephensi; sheet after 1 week): at least 80%; control of Anopheles stephensi (Anopheles stephensi; sheet after 2 weeks): at least 80%; control of Anopheles stephensi (Anopheles stephensi; sheet after 10 weeks): at least 80%
4 | CN1OC(c2ccccc2)(C2CC2)N=C1N(C)C(C)(C)C (stereo not shown) [Compound P1.18, N-tert-Butyl-5-cyclopropyl-N,2-dimethyl-5-phenyl-1,2,4-oxadiazol-3-amine] | ≥ 80% | – | – | – | – | –
5 | CN1OC(c2ccc(C#N)cc2)(C2CC2)N=C1NC(C)(C)C (stereo not shown) [Compound P1.136, 4-[3-(tert-butylamino)-5-cyclopropyl-2-methyl-1,2,4-oxadiazol-5-yl]benzonitrile] | ≥ 80% | – | – | – | – | –
6 | CN1OC(c2ccc(F)cc2)(C2CC2)N=C1NC(C)(C)C(F)(F)F (stereo not shown) [Compound P1.88, 5-Cyclopropyl-5-(4-fluorophenyl)-2-methyl-N-(2,2,2-trifluoro-1,1-dimethyl-ethyl)-1,2,4-oxadiazol-3-amine] | ≥ 80% | ≥ 80% | ≥ 80% | ≥ 80% | ≥ 80% | percent effect (mortality or growth inhibition) at 200 ppm (Euschistus heros): ≥ 80%; percent effect (mortality, anti-feeding or growth inhibition) at 12.5 ppm (Spodoptera littoralis [2]): ≥ 80%
